The subject of one assay is pSTAT1. In words: STAT1 phosphorylation in IFN-γ stimulated HEK293 cells (western blot). In kind it is cell-based. The following applies: Homo sapiens, HEK293, 16 h, read-out: EC50 of pSTAT1 activation. How it is done:
Wild-type HEK293 cells were treated with compound 47 or ABBV-CLS-484 for 16 hours, and stimulated with 20 ng/ml IFN-γ to induce JAK-STAT signaling pathway activation.
Abbvie and Calico developed a potent PTP1B/TC-PTP inhibitor ABBV-CLS-484 (disclosed in International PCT application WO2019246513), and it is currently being evaluated as a treatment for locally advanced or metastatic tumors (NCT04777994).
In general terms: Immunoblotting shows a protein as a band on a membrane.

Assay [1] has as its system PTP1B and TC-PTP. The assay is described as follows: Immunofluorescence of PTP1B and TC-PTP in U2OS cells. In kind it is cell-based. To be noted: 1 μM, 3 hours and 24 hours. The protocol:
MG132 (20 μM) was used along with compound 47 to block PTP1B and TC-PTP degradation.

The next assay concerns HEK293 cells. In words: Proteomic analysis for degradation selectivity in HEK293 cells. In kind it is cell-based. To be noted: 100 nM, 4 hours. The protocol: The proteome-wide degradation selectivity of compound 47 was assessed by performing quantitative mass spectrometry-based proteomic experiments to determine the range of targets degraded by compound 47 in HEK293 cells.

Assay [2] is described as follows: Blood glucose levels study in mice. In kind it is in vivo, mouse. How it is done:
Blood glucose levels were measured 24 or 48 hours after injection. No starvation applied. NFD=normal fat diet fed mice. […] Mice were treated with 25 or 50 mg/kg of compound 47 daily through i.p. injection. Blood glucose levels were measured several times before injection during the experiment.
PTP1B and TC-PTP are known to function in concert in regulating both insulin and leptin-mediated cellular processes. The inhibition of PTP1B and TC-PTP was reported to improve insulin sensitivity and glucose homeostasis in diet-induced obese mice. The effect of compound 47 on the glucose levels in mice was evaluated.

Assay [3] has as its system PTP1B and TC-PTP. In words: Western blot quantification of PTP1B/TC-PTP and pSTAT1 in multiple cell lines. In kind it is cell-based. How it is done: The GAPDH protein was used as the loading control. Compound 47 induces PTP1B and TC-PTP degradation in all tested cell lines with low nanomolar DC50s.
The GAPDH protein was used as the loading control. […] The changes in pSTAT1 level were positively correlated with TC-PTP/PTP1B degradation among all cell lines.
Tissues or cultured cells were lysed with ice-cold lysis buffer (50 mM Tris (pH 8.0, 150 mM NaCl, 10% Glycerol, 1% Triton-X-100) supplied with phosphatase inhibitor (Bimake) and protease inhibitor mixture (Roche Applied Science). Equal amounts of protein were resolved by SDS-PAGE, transferred to nitrocellulose membrane, and subjected to immunoblotting. Antibodies used in this study include anti-following proteins: pSTAT1^Tyr701 (Cell Signaling Technology #9167, 1:3000), GAPDH (Cell Signaling Technology #97166, 1:5000), pJAK1^Tyr1034/1035 (Cell Signaling Technology #74129, 1:1000), pJAK2^Tyr1007/1008 (Cell Signaling Technology #3776, 1:1000), TC-PTP (Abcam #ab180764, 1:3000). PTP1B (Abcam #ab244207, 1:1500).

For the next assay, the target named is T1, TC-PTP (Homo sapiens, UniProt P17706).
T1 sequence (P17706 1-415): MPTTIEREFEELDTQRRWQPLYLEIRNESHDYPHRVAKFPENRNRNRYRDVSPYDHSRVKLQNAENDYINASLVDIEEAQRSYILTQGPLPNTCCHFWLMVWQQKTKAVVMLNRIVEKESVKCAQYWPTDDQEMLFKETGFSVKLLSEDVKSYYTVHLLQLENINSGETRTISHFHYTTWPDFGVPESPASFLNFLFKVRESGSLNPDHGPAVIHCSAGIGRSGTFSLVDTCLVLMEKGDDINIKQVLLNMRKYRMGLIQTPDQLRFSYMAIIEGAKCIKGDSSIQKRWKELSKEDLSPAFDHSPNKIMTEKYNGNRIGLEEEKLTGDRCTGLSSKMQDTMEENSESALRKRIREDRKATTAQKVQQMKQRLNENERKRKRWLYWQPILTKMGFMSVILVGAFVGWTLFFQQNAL
In words: PTP activity assay with pNPP substrate (IC50, Ki, mode of inhibition). In kind it is biochemical. The following applies: pNPP 2 mM, pH 7.0, 25° C.; read-out: IC50, nM TC-PTP. The method in brief: (§1)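 Hydrolysis of pNPP measured spectrophotometrically in pH 7.0 DMG buffer (EDTA, NaCl, DTT, BSA) at 25 °C, 0.4 nM enzyme. IC50 at 2 mM pNPP (Km) over an inhibitor titration; mode of inhibition and Ki from rates across varied pNPP and inhibitor levels, fitted to enzyme kinetic models.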

In another assay the target is T2, PTP1B (Homo sapiens, UniProt P18031).
T2 sequence (P18031 1-435): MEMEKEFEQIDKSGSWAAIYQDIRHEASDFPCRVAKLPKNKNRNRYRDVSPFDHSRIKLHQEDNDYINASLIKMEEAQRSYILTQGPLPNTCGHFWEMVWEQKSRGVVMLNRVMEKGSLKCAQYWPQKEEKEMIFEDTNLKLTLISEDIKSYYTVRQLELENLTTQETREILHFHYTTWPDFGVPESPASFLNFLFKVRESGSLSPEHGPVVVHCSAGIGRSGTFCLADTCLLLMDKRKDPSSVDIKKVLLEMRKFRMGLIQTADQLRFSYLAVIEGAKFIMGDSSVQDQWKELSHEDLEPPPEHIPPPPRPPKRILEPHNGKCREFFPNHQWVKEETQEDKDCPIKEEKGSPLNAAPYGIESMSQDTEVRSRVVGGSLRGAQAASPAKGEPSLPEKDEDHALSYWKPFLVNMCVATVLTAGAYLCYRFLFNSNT
The description is as above. In kind it is biochemical. To be noted: pNPP 2 mM, pH 7.0, 25° C.; read-out: IC50, nM PTP1B. The method in brief: as §1

*1 amine or outer side, *2 acyl side, *3 side chain or, on linkers, in order; H or OH if unused. Where a SMILES comes first, the peptide text is derived from it. [ ]: non-standard residue; d: D form. The star is where a group is joined. NHCH2(1,3-C6H4)CH2CO = O=C(Cc1cccc(CN[*:1])c1)[*:2]; F2Pmp = N[C@@H](Cc1ccc(C(F)(F)P(=O)(O)O)cc1)C(=O)O; Phenylacetyl(4-OH,3-OMe) = COc1cc(CC(=O)*)ccc1O; Benzoyl(3-Br,4-Me) = Cc1ccc(C(=O)*)cc1Br; X1 = Cc1ncsc1-c1ccc([C@H](C)N*)cc1; Hyp = O=C(O)[C@@H]1C[C@@H](O)CN1; Tle = CC(C)(C)[C@H](N)C(=O)O

Consider `COc1cc(CC(=O)N[C@@H](Cc2ccccc2)C(=O)N[C@@H](Cc2ccc(C(F)(F)P(=O)(O)O)cc2)C(=O)N[C@@H](CCCCNC(=O)c2ccc(C)c(Br)c2)C(=O)NCc2cccc(CC(=O)N[C@H](C(=O)N3C[C@H](O)C[C@H]3C(=O)N[C@@H](C)c3ccc(-c4scnc4C)cc3)C(C)(C)C)c2)ccc1O` [Compound 47, ((4-((S)-3-(((S)-6-(3-bromo-4-methylbenzamido)-1-((3-(2-(((S)-1-((2S,4R)-4-hydroxy-2-(((S)-1-(4-(4-methylthiazol-5-yl)phenyl)ethyl)carbamoyl)pyrrolidin-1-yl)-3,3-dimethyl-1-oxobutan-2-yl)amino)-2-oxoethyl)benzyl)amino)-1-oxohexan-2-yl)amino)-2-((S)-2-(2-(4-hydroxy-3-methoxyphenyl)acetamido)-3-phenylpropanamido)-3-oxopropyl)phenyl)difluoromethyl)phosphonic Acid] ({Phenylacetyl(4-OH,3-OMe)}-F[F2Pmp]K(Benzoyl(3-Br,4-Me))[NHCH2(1,3-C6H4)CH2CO][Tle][Hyp]-X1), for which the EC50 with pSTAT1 was 9.1 nM. Also, the “PTP1B and TC-PTP degradation by immunofluorescence” value with PTP1B and TC-PTP [1] was “degraded cytoplasm-localized PTP1B and both nucleus- and cytoplasm-localized TC-PTP”. The proteome-wide degradation selectivity result in the assay with HEK293 cells is listed as “PTP1B was the only protein whose levels were significantly reduced”. The blood glucose level entry was “did not lead to significant reduction in the level of blood glucose” in assay [2] (MC38 tumor mouse model, 25 mg/kg daily i.p.); “slightly reduced blood glucose level” in assay [2] (MC38 tumor mouse model, 50 mg/kg daily i.p.); “sufficient to reduce blood glucose level in high-fat diet (HFD) mice to that of normal fat diet fed (NFD) mice” in assay [2] (high-fat diet (HFD) mice, 15 mg/kg); “further reduced glucose levels” in assay [2] (high-fat diet (HFD) mice, 50 mg/kg). For the same compound, the “DC50 of PTP1B and TC-PTP degradation” value with PTP1B and TC-PTP [3] (all tested cell lines, 16 hours) is listed as “low nanomolar”. Besides, the pSTAT1 level entry in the assay on PTP1B and TC-PTP [3] (multiple cell lines, 10 ng/ml IFN-γ 15 mins) is reported as “enhances pSTAT1 level in all cell lines”. Moreover, the IC50 turned out to be 30.1 ± 2.3 nM at TC-PTP and 24.2 ± 1.7 nM at PTP1B.

In general, EC50 refers to the concentration needed to bring the measured effect to its halfway point. The IC50 is the concentration that gives 50% inhibition.

Source of the values: patent US20260240878A1, “PTP1B/TC-PTP DUAL INHIBITORS AND PROTEIN DEGRADERS” (Purdue Research Foundation, priority 2023, published 2026).
